Experimental data from US11692194B2, “Modulating expression of polypeptides via new gene switch expression systems” (Precigen, Inc., priority 2017, dated 2023).

Key:
[1] = test system: CD19-specific CAR-T cells co-expressing RTS-mbIL-15; experiment: Survival of CD19 CAR/RTS-mbIL-15 T cells upon withdrawal of IL-2 and IL-21; type: cell-based, human; conditions: veledimex 50 nM, ex vivo culture, % live cells by flow
Procedure: Multiple Sleeping Beauty transposon DNA plasmids encoding for RTS-membrane bound IL-15 (RTS-mbIL-15), CD19-specific chimeric antigen receptor (CD19 CAR) (Design 9, FIG. 2) were transfected into peripheral blood mononuclear cells (PBMC) along with plasmid DNA encoding for Sleeping Beauty transposase SB11 via nucleofection (FIG. 1). On day 0, 20 million PBMC were resuspended in 100 μL of Amaxa Human T cell Nucleofector solution (Cat. no. VPA-1002; Lonza, Basel, Switzerland) mixed with a total of 15 μg of transposons and 5 μg of transposase and nucleofected into cells. The following day (day1) cells were counted, and CAR expression was measured using flow cytometry. Cells were stimulated with either γ-irradiated (100 Gy) or mitomycin C treated K562 based AaPCs expressing CD19 on their surface at a 1:1 ratio. Cultures were supplemented with IL-21 (30 ng/ml) only for the first round of stimulation and subsequently with recombinant human IL-2 (50 IU/ml) and IL-21 (30 ng/ml) (Pepro Tech) for remaining stimulations. […] Cultures were also closely monitored for the outgrowth of NK cells (defined as CD3negCD56+ population) and were removed from the CAR T cell cultures when the percentage exceeded 10% of total cell populations using magnetic beads for CD56 (Stem Cell Technologies and/or Miltenyi Biotec), according to the manufacturer's instructions. […]

[2] = test system: RTS:mbIL15 in CAR T cells; experiment: Serine recombinase (SF370) integrated single vector CAR:HER1t+RTS:mbIL15, flow cytometry of mbIL15; type: cell-based
Procedure: Various DNA plasmids containing serine recombinase attachment sites and components of the gene switch system as depicted in FIG. 17 were transfected to peripheral blood mononuclear cells (PBMC) via nucleofection to redirect T cell specificity. Specifically, 3 single vectors were tested in the presence and absence of a serine recombinase, SF370:
(i) CAR:HER1t+constitutive mbIL15 (positive control)
(ii) CAR:HER1t+promoterless mbIL15 (negative control)
(iii) CAR:HER1t+RTS:mbIL15
The expression of the CAR and mbIL15 was evaluated weekly (at days 1, day 8, day 15 and day 22). Aliquots of cells were treated with either DMSO or veledimex 24-48 h prior to each flow to assess inducible mbIL15 expression. AaPC Clone 1 was added weekly at a 1:1 ratio with CAR+ cells.

[3] = test system: RTS-IL-12 in EGFRvIII-CAR T cells; experiment: Veledimex dose-response of IL-12, ELISA; type: cell-based
Procedure: EGFRvIII-CAR T cells with or without RTS-IL-12 were expanded ex vi by three successive rounds of stimulation with EGFRvIII^+ AaPCs. T cells were then treated with varying doses of veledimex from 0 nM (DMSO control) to 100 nM. At 48 h post veledimex treatment, culture supernatants were harvested analyzed for IL-12 levels by ELISA. EGFRvIII-CAR expression in all groups was confirmed with flow cytometry and was stable with increasing doses of veledimex (data not shown) as expected with CAR expression under control of a constitutive promoter.

Compound: CCC[C@@H](N(NC(=O)c1cccc(OC)c1CC)C(=O)c1cc(C)cc(C)c1)C(C)(C)C [veledimex, N-[(1R)-1-(1,1-dimethylethyl)butyl]-N′-(2-ethyl-3-methoxybenzoyl)-3,5-dimethylbenzohydrazide]
- survival of CAR-T cells in absence of cytokines (IL-2 and IL-21) [1]: improved survival of CAR-T cells
- mbIL15 expression after removal of veledimex ([2]; day 22): complete loss of mbIL15 expression
- mbIL-15 expression on veledimex treatment ([2]; two weeks post-transfection, ~48 h treatment): induction of mbIL-15 expression
- IL-12 production versus veledimex dose ([3]; 0 nM to 100 nM, 48 h post treatment): dose dependent
- EGFRvIII-CAR expression with increasing doses of veledimex ([3]; flow cytometry, data not shown): stable
